Columns and labels:
[1] = system: thrombus formation in an arteriovenous shunt; experiment: Arteriovenous shunt model (rat), antithrombotic effect; format: in vivo; details: oral administration, read-out: ED50 [mg/kg] p.o.
Protocol: Fasting male rats (strain: HSD CPB:WU) weighing 200-250 g were anesthetized with a Rompun/Ketavet solution (12 mg/kg/50 mg/kg). Thrombus formation was induced in an arteriovenous shunt by a method based on that described by Christopher N. Berry et al., Br. J. Pharmacol. (1994), 113, 1209-1214. For this purpose, the left jugular vein and the right carotid artery were exposed. An extracorporeal shunt was formed between the two vessels using a 10 cm-long polyethylene tube (PE 60). This polyethylene tube was secured in the middle by tying in a further 3 cm-long polyethylene tube (PE 160) which contained a roughened nylon thread forming a loop to produce a thrombogenic surface. The extracorporeal circulation was maintained for 15 minutes. The shunt was then removed and the nylon thread with the thrombus was immediately weighed. The blank weight of the nylon thread had been found before the start of the experiment. The test substances were administered either intravenously through the tail vein or orally by gavage to conscious animals before setting up the extracorporeal circulation.

melting point [°C]	SMILES	ED50 [1] [mg/kg]
228 to 230	O=C(NC[C@H]1CN(c2ccc(N3CCCOC3=O)cc2)C(=O)O1)c1ccc(Cl)s1 [Example 255]	–
–	O=C(NC[C@H]1CN(c2ccc(N3CCOCC3=O)cc2)C(=O)O1)c1ccc(Cl)s1 [Example 44, 5-Chloro-N-({(5S)-2-oxo-3-[4-(3-oxo-4-morpholinyl)phenyl]-1,3-oxazolidin-5-yl}methyl)-2-thiophenecarboxamide]	3
